# “And” between values parts separate entries of the source, which are not always exact repeats. Equal entries are not always repeated. “Also recorded” adds a separate entry of the source. Where two headings read alike, the source gives them in different places.
# Tests used:
# [1] = tested on: Lewis lung carcinoma; test: Lewis lung in vivo mouse model, low doses, Example 13 (Table III); design: species or system B6 D2 F1 female mice; conditions: for Treated Group Survival Time: control 20.2
# Method: As illustrative examples of the antitumor use of COMPOUNDS 1 and 2, Examples 12 through 14, below, are given. […] The tests utilized in these illustrative examples were conducted by the Developmental Therapeutics Program, Division of Cancer Treatment, National Cancer Institute. The tests were supervised by this agency utilizing their standard protocols and procedures. All tests conformed to these protocols and all tests were evaluated under the criteria defined by these protocols. The following representative examples illustrate confirmed activity of the illustrative compounds of the invention against screening tumor systems of the National Cancer Institute.
# For purposes of the following examples, the abbreviation IP stands for intraperitoneal and IV stands for intravenous. The mean and median survival times are calculated in instruction 14 (revised 6/78) of the Screening Data Summary, Developmental Therapeutics Program, Division of Cancer Treatment, National Cancer Institute. The contents of this Screening Data Summary including appropriate revisions are herein incorporated by reference.
# In the illustrated examples below, the vehicle used as carrier for the drug was injected (minus any drug therein) into the control animals at the same level of use of the vehicle in the drug treated animals in order to eliminate any vehicle effect of the tests.
# COMPOUND 1 was further tested in a Lewis lung in vivo mouse model using B6 D2 F1 female mice challenged with Lewis lung carcinoma.
# [2] = tested on: L-1210; test: Growth inhibition in suspension cell culture, L-1210; assay type: cell-based; conditions: Mus musculus, L1210, 72 hours, cell count 50 percent of untreated control, read-out: ID50 (the source's name)
# Method: In further tests, growth-inhibitory effects of COMPOUND 1 and COMPOUND 2 were measured against 3 mouse tumor lines in suspension cell culture. Cell cultures were initiated at a density of 50,000 cells/ml in medium RPMI 1630 supplemented with 10 percent fetal calf serum. Composition of this culture medium and details of the culture procedure followed the published method (G. E. Moore, A. A. Sandberg and K. Ulrich, Suspension Cell Culture and in vivo and in-vitro chromosome constitution of mouse leukemia L1210, Journal of the National Cancer Institute 36, 405-415, 1966). Cultures were maintained at 37 degrees in stationary suspension culture under a 95 percent air+5 percent CO2 atmosphere. Test compounds were added to treated cultures at the time of initiation, and were present continually. After 72 hours, 40-fold dilutions of drug-treated and untreated control cultures were prepared in 0.9 percent NACl solution, and cells were counted on an electronic particle counter. The growth-inhibitory effects are expressed as ID50 values, namely, test compound inhibitory dosages or concentrations required to decrease cell count in treated cultures to 50 percent of the cell count of untreated control cultures.
# [3] = tested on: Ad-2; test: Antiviral activity (virus rating method); assay type: cell-based
# From the text: (§1) Microbiol. 22, 797 (1971). A virus rating that is greater than 1.0 indicates definite antiviral activity. […] The results reported below were obtained by testing on Microtest II (Falcon Plastics) plastic panels with a monolayer of Vero or HeLa cells.
# [4] = tested on: Cox B1; test: Antiviral activity (virus rating method); assay type: cell-based; conditions: for Virus Rating: >1.0 definite, 0.5-0.9 moderate, <0.5 slight or no activity; for EC50: read-out: ED50 (the source's name)
# From the text: as §1
# [5] = tested on: Cox B4; test: Antiviral activity (virus rating method); assay type: cell-based; conditions: for Virus Rating: >1.0 definite, 0.5-0.9 moderate, <0.5 slight or no activity
# From the text: as §1
# [6] = tested on: HSV-1; test: Antiviral activity (virus rating method); assay type: cell-based; conditions: for Virus Rating: >1.0 definite, 0.5-0.9 moderate, <0.5 slight or no activity; for EC50: read-out: ED50 (the source's name)
# From the text: as §1
# [7] = tested on: HSV-2; test: Antiviral activity (virus rating method); assay type: cell-based; conditions: for Virus Rating: >1.0 definite, 0.5-0.9 moderate, <0.5 slight or no activity; for EC50: read-out: ED50 (the source's name)
# From the text: as §1
# [8] = tested on: Measles; test: Antiviral activity (virus rating method); assay type: cell-based; conditions: for Virus Rating: >1.0 definite, 0.5-0.9 moderate, <0.5 slight or no activity; for EC50: Measles morbillivirus, read-out: ED50 (the source's name)
# From the text: as §1
# [9] = tested on: Mumps; test: Antiviral activity (virus rating method); assay type: cell-based; conditions: for Virus Rating: >1.0 definite, 0.5-0.9 moderate, <0.5 slight or no activity; for EC50: read-out: ED50 (the source's name)
# From the text: as §1
# [10] = tested on: Para 3; test: Antiviral activity (virus rating method); assay type: cell-based; conditions: for Virus Rating: >1.0 definite, 0.5-0.9 moderate, <0.5 slight or no activity; for EC50: read-out: ED50 (the source's name)
# From the text: as §1
# [11] = tested on: Reo 3; test: Antiviral activity (virus rating method); assay type: cell-based; conditions: for Virus Rating: >1.0 definite, 0.5-0.9 moderate, <0.5 slight or no activity; for EC50: read-out: ED50 (the source's name)
# From the text: as §1
# [12] = tested on: VV; test: Antiviral activity (virus rating method); assay type: cell-based; conditions: for Virus Rating: >1.0 definite, 0.5-0.9 moderate, <0.5 slight or no activity; for EC50: read-out: ED50 (the source's name)
# From the text: as §1
# [13] = tested on: VSV; test: microbe, parasite or virus in culture; assay type: cell-based; conditions: for Virus Rating: >1.0 definite, 0.5-0.9 moderate, <0.5 slight or no activity; for EC50: Vesicular stomatitis virus, read-out: ED50
# [14] = tested on: DNA and RNA viruses; test: Antiviral activity against the DNA and RNA virus panel; assay type: cell-based
# From the text: as §1
# [15] = tested on: Vero cells; test: Toxicity to Vero cells; conditions: 1000 ug/ml (highest concentration tested)
# [16] = tested on: MRC-5 cells; test: Toxicity to MRC-5 cells; conditions: 1000 ug/ml (highest concentration tested)
# [17] = HeLa, read-out: ED50 (the source's name)
compound,measurement,setting,value
"NC(=O)c1c[se]c([C@@H]2O[C@H](CO)[C@@H](O)[C@H]2O)n1 [COMPOUND 1, 2-β-D-ribofuranosylselenazole-4-carboxamide]",Cures,[1]; 0.75 mg/kg,0/10
same,Percent Treated Animals/Control Animals (T/C),[1]; 0.75 mg/kg,107%
same,Treated Group Survival Time,[1]; 0.75 mg/kg,21.7
same,Cures,[1]; 1.50 mg/kg,0/10
same,Percent Treated Animals/Control Animals (T/C),[1]; 1.50 mg/kg,110%
same,Treated Group Survival Time,[1]; 1.50 mg/kg,22.3
same,Cures,[1]; 3.00 mg/kg,0/10
same,Percent Treated Animals/Control Animals (T/C),[1]; 3.00 mg/kg,153%
same,Treated Group Survival Time,[1]; 3.00 mg/kg,31.0
same,DN2 level activity,"[1]; 3 mg/kg, percent T/C greater than 150",achieved DN2 level activity
same,Cures,[1]; 6.00 mg/kg,5 out of 10 and 5/10
same,Percent Treated Animals/Control Animals (T/C),[1]; 6.00 mg/kg,297%
same,Treated Group Survival Time,[1]; 6.00 mg/kg,60.0
same,Cures,[1]; 12.00 mg/kg,9/10
same,Percent Treated Animals/Control Animals (T/C),[1]; 12.00 mg/kg,297%
same,Treated Group Survival Time,[1]; 12.00 mg/kg,60.0
same,Cures,[1]; 24.00 mg/kg,9 out of 10 and 9/10
same,Percent Treated Animals/Control Animals (T/C),[1]; 24.00 mg/kg,297%
same,Treated Group Survival Time,[1]; 24.00 mg/kg,60.0
same,antitumor activity in words,"[1]; mouse, in vivo",effective antitumor agent
same,IC50,[2],400 nM
same,antiviral activity in words,"[3]; HeLa cells, Adenoviridae (Adeno-2)",Excellent antiviral activity
same,Virus Rating,"[3]; HeLa, >1.0 definite, 0.5-0.9 moderate, <0.5 slight or no activity",1.9
same,EC50,[3]; [17],9 µg/mL
same,antiviral activity in words,"[4]; HeLa cells, Picornaviridae (Cox B1)",Excellent antiviral activity
same,Virus Rating,[4]; HeLa,1.8
same,EC50,[4]; HeLa,10 µg/mL
same,Virus Rating,[4]; Vero,1.7
same,EC50,[4]; Vero,15 µg/mL
same,antiviral activity in words,"[5]; HeLa cells, Picornaviridae (Cox B4)",Excellent antiviral activity
same,Virus Rating,[5]; HeLa,2.3
same,EC50,[5]; [17],6 µg/mL
same,EC50,"[5]; Vero, read-out: ED50",1000 µg/mL
same,Virus Rating,[5]; Vero,0.0
same,type of antiviral activity,"[6]; HSV-1, depending upon cell line",virusstatic
same,Virus Rating,[6]; HeLa,1.4
same,EC50,"[6]; Human alphaherpesvirus 1, HeLa",2 µg/mL
same,EC50,"[6]; Human alphaherpesvirus 1, Vero",30 µg/mL
same,Virus Rating,[6]; Vero,1.2
same,Virus Rating,[7]; HeLa,1.5
same,EC50,"[7]; Human alphaherpesvirus 2, HeLa",4 µg/mL
same,EC50,"[7]; Human alphaherpesvirus 2, Vero",10 µg/mL
same,Virus Rating,[7]; Vero,1.5
same,Virus Rating,[8]; HeLa,1.8
same,EC50,[8]; HeLa,2 µg/mL
same,EC50,[8]; Vero,1 µg/mL
same,Virus Rating,[8]; Vero,2.0
same,Virus Rating,[9]; HeLa,1.0
same,EC50,[9]; HeLa,1 µg/mL
same,Virus Rating,[9]; Vero,1.7
same,EC50,[9]; Vero,5 µg/mL
same,Virus Rating,[10]; HeLa,2.2
same,EC50,[10]; HeLa,1 µg/mL
same,type of antiviral activity,"[10]; Para-3, depending upon cell line",virusstatic
same,Virus Rating,[10]; Vero,2.6
same,EC50,[10]; Vero,1 µg/mL
same,Virus Rating,[11]; HeLa,2.7
same,EC50,[11]; HeLa,8 µg/mL
same,Virus Rating,[11]; Vero,1.8
same,EC50,[11]; Vero,1 µg/mL
same,Virus Rating,[12]; HeLa,2.4
same,EC50,[12]; HeLa,2 µg/mL
same,type of antiviral activity,"[12]; Vaccinia, depending upon cell line",virucidal
same,Virus Rating,[12]; Vero,2.1
same,EC50,[12]; Vero,3 µg/mL
same,antiviral activity in words,"[13]; HeLa cells, Rhabdoviridae (VSV)",Excellent antiviral activity
same,Virus Rating,[13]; HeLa,2.1
same,Virus Rating,[13]; Vero,0.4
same,EC50,[13]; HeLa,9 µg/mL
same,EC50,[13]; Vero,1000 µg/mL
same,antiviral activity in words,"[14]; DNA and RNA viruses, Vero or HeLa cells",showed activity against both small and large viruses of both DNA and RNA types; also recorded: good broad spectrum antiviral activity against both DNA and RNA viruses
same,inhibition of viral cytopathic effects in words,"[14]; cell culture, representative viruses",inhibits viral cytopathic effects in cell culture for representative viruses at extremely low dosage
same,toxicity to cells,[15],non-toxic
same,toxicity to cells,[16],non-toxic

# From US4531001A, “2-β-D-ribofuranosylselenazole-4-carboxamide compounds” (priority 1983, dated 1985)
